target: GluA1o-γ8 (GRIA1o-CACNG8 fusion construct; TARP γ8 dependent AMPA receptor) (Homo sapiens (Human), UniProt P42261+Q8WXS5); experiment: Calcium flux assay (FLIPR), inhibition of glutamate response of GluA1o-γ8 channel; format: cell-based; settings: HEK293 cells stably expressing GRIA1o-CACNG8 fusion; 15 μM glutamate; pIC50 = negative log of IC50 in molar; read-out: GluR1-γ8 (pIC50) (converted)
In short: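 Potency is the midpoint of a four-parameter logistic fit to control-normalized FLIPR calcium responses elicited by 15 μM glutamate. Stable HEK293 cells carried a fused GluA1o-γ8 construct and were preincubated with compound and calcium dye in pH 7.4 HEPES buffer.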

GluA1o-γ8 (GRIA1o-CACNG8 fusion construct; TARP γ8 dependent AMPA receptor), sequence (P42261 other isoform, or with tags, fused parts or gaps): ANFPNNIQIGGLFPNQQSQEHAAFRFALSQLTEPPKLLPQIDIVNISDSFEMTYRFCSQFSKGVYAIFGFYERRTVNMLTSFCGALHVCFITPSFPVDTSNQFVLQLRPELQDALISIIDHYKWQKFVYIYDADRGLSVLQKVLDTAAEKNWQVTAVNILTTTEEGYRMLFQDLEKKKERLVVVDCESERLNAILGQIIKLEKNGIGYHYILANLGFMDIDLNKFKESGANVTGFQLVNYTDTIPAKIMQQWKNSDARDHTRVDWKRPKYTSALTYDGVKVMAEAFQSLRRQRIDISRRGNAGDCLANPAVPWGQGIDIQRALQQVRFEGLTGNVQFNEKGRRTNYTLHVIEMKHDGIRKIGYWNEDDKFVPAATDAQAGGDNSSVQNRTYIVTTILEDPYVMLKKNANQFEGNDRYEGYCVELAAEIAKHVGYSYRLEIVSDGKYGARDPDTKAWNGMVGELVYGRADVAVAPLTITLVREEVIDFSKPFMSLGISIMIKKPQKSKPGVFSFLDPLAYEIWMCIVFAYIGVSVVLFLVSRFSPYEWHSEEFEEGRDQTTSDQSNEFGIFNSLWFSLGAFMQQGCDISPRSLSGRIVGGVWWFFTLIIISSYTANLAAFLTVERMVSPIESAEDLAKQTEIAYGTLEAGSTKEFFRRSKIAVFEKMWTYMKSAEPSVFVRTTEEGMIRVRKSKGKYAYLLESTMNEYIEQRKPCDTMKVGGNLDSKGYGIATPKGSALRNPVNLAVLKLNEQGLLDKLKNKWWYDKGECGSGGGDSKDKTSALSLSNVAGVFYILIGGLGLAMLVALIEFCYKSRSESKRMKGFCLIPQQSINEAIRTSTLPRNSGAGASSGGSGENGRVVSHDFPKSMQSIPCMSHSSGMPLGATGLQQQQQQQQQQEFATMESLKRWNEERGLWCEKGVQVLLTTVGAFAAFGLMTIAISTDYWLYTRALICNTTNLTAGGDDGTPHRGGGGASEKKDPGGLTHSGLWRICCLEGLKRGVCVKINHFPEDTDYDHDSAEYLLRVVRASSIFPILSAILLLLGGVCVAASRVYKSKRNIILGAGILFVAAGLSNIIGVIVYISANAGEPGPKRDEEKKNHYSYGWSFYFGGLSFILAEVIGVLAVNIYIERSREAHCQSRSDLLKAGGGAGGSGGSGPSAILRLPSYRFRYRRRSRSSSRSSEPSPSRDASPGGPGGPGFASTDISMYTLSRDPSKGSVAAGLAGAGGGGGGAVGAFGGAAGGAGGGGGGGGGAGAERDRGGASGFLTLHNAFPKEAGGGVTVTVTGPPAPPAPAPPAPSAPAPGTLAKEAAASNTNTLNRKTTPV

Row | SMILES | IC50 [nM]
1 | O=C(c1ccccc1)c1nc2c(N3CCOCC3)nccn2c1-c1ccc2c(c1)CS(=O)(=O)N2 [Example 159, [3-(2,2-Dioxo-1,3-dihydro-2,1-benzothiazol-5-yl)-8-morpholino-imidazo[1,2-a]pyrazin-2-yl]-phenyl-methanone] | 7.94
2 | c1ccc(-c2nn3c(N4CCOCC4)nccc3c2-c2ccc3[nH]ncc3c2)cc1 [Example 233, 4-[3-(1H-Indazol-5-yl)-2-phenyl-pyrazolo[1,5-c]pyrimidin-7-yl]morpholine] | 0.398
3 | O=C1Cc2cc(-c3c(-c4ccncc4)nc4c(N5CC(F)C5)nccn34)ccc2N1 [Example 89, 5-[8-(3-Fluoroazetidin-1-yl)-2-(4-pyridyl)imidazo[1,2-a]pyrazin-3-yl]indolin-2-one] | 200
4 | Cc1cnc(N2CCOCC2)n2nc(C(C)C)c(-c3ccc4[nH]c(=O)sc4c3)c12 [Example 243, 6-(2-Isopropyl-4-methyl-7-morpholino-pyrazolo[1,5-c]pyrimidin-3-yl)-3H-1,3-benzothiazol-2-one] | 3.98
5 | CN1CCN(c2nccn3c(-c4ccc(O)cc4)c(-c4ccc(F)cc4)nc23)CC1 [Example 6, 4-[2-(4-Fluorophenyl)-8-(4-methylpiperazin-1-yl)imidazo[1,2-a]pyrazin-3-yl]phenol] | 501
6 | COC1CCN(c2nccc3c(-c4ccc5[nH]ncc5c4)c(C(C)C)nn23)CC1 [Example 237, 3-(1H-indazol-5-yl)-2-isopropyl-7-(4-methoxy-1-piperidyl)pyrazolo[1,5-c]pyrimidine] | 126
7 | O=C1NCc2cc(-c3c(-c4ccc(F)cc4)nc4c(N5CCOCC5)nccn34)ccc2N1 [Example 120, 6-[2-(4-Fluorophenyl)-8-morpholino-imidazo[1,2-a]pyrazin-3-yl]-3,4-dihydro-1H-quinazolin-2-one] | 100
8 | Oc1ccc(-c2c(C3CCCCC3)nc3c(N4CCOCC4)nccn23)cc1 [Example 85, 4-(2-Cyclohexyl-8-morpholino-imidazo[1,2-a]pyrazin-3-yl)phenol] | 200
9 | O=C1Cc2cc(-c3c(-c4ccccc4)nc4c(N5CCC(CF)CC5)nccn34)ccc2N1 [Example 76, 5-[8-[4-(Fluoromethyl)-1-piperidyl]-2-phenyl-imidazo[1,2-a]pyrazin-3-yl]indolin-2-one] | 0.251
10 | CC1(C)COCCN1c1nccn2c(-c3ccc4c(c3)CC(=O)N4)c(-c3ccc(F)cc3)nc12 [Example 50, 5-[8-(3,3-Dimethylmorpholin-4-yl)-2-(4-fluorophenyl)imidazo[1,2-a]pyrazin-3-yl]indolin-2-one] | 31.6
11 | CC(C)Oc1nccn2c(-c3ccc4c(c3)CC(=O)N4)c(-c3ccc(F)cc3)nc12 [Example 129, 5-[2-(4-Fluorophenyl)-8-isopropoxy-imidazo[1,2-a]pyrazin-3-yl]indolin-2-one] | 20
12 | Oc1ccc(-c2c(-c3ccc(F)cc3)nc3c(N4CCC(F)(F)CC4)nccn23)cc1 [Example 28, 4-[8-(4,4-Difluoro-1-piperidyl)-2-(4-fluorophenyl)imidazo[1,2-a]pyrazin-3-yl]phenol] | 158
13 | O=c1[nH]c2ccc(-c3c(-c4ccc(F)cc4)nc4c(N5CCOCC5)nccn34)cc2[nH]1 [Example 11, 5-[2-(4-Fluorophenyl)-8-morpholino-imidazo[1,2-a]pyrazin-3-yl]-1,3-dihydrobenzimidazol-2-one] | 0.398
14 | Cc1nccn2c(-c3ccc4c(c3)CC(=O)N4)c(-c3ccc(F)cc3)nc12 [Example 133, 5-[2-(4-Fluorophenyl)-8-methyl-imidazo[1,2-a]pyrazin-3-yl]indolin-2-one] | 251
15 | O=C1Cc2cc(-c3c(-c4ccccc4)nn4c(OC5CCCC5)nccc34)ccc2N1 [Example 192, 5-[7-(Cyclopentoxy)-2-phenyl-pyrazolo[1,5-c]pyrimidin-3-yl]indolin-2-one] | 7.94
16 | CC1(O)CN(c2nccc3c(-c4ccc5c(c4)CC(=O)N5)c(-c4ccc(F)cc4)nn23)C1 [Example 184, 5-[2-(4-Fluorophenyl)-7-(3-hydroxy-3-methyl-azetidin-1-yl)pyrazolo[1,5-c]pyrimidin-3-yl]indolin-2-one] | 3.16

Source: US10513523B2, “Imidazopyrazines and pyrazolopyrimidines and their use as AMPA receptor modulators” (Janssen Pharmaceutica NV, priority 2015, dated 2019)
